Source: publication PMC4872216, “Novel small molecule 11β-HSD1 inhibitor from the endophytic fungus Penicillium commune” (Scientific Reports, 2016)
Entries after “also recorded” stand apart in the source; their conditions may differ.

Legend:
[1] = target: T1, recombinant human 11β-HSD1 (Homo sapiens, UniProt P28845); assay: Binding affinity assay using microscale thermophoresis (MST); conditions: labelled 11β-HSD1 50 nM, 22 °C, means ± SD for three experiments; for Kd: read-out: Kd (dissociation constant with 11β-HSD1)
T1 construct: The gene encoding 11β-HSD1 (Genebank: NC_018912.2) was cloned into the pET-28a vector (Novagen); hexa-histidine (C, cleaved yes); made in house; host or cells: E. coli BL21(DE3)
Source text: Measuring the thermophoretic behaviour of a protein in the presence of differing ligand concentrations by MST allows quantitative analysis of molecular interactions in solution. The MST technique has previously been used to investigate protein-protein, small organic molecule-protein and antibody-protein interactions.
(§1) The gene encoding 11β-HSD1 (Genebank: NC_018912.2) was cloned into the pET-28a vector (Novagen). After the recombinant plasmids were verified by sequencing, the plasmid was transformed into E. coli BL21(DE3) (Invitrogen) which were grown in LB medium at 37 °C to an OD600 (0.8–1.0) and induced by 0.4 mM isopropyl -D-thiogalactopyranoside (IPTG) at 20 °C for 16 hours. Bacterial cells were lysed by ultrasonification on ice in a buffer containing 20 mM Tris, pH 8.5, 200 mM NaCl, 5 mM mercaptoethanol, 0.1% TritonX-100, and 5% glycerol. Soluble C-terminally hexa-histidine tagged 11β-HSD1 was bound to Ni-agarose affinity resin (Qiagen), washed with a buffer containing 20 mM Tris, pH 8.5, 200 mM NaCl, and 10 mM imidazole, and eluted with a buffer containing 20 mM Tris, pH 8.8, 250 mM NaCl, and 150 mM imidazole. Thrombin (Roche) was added at one unit per 4 mg protein to the elute, which was then dialyzed against 20 mM Tris pH 8.5 and 100 mM NaCl at room temperature for overnight digestion. After thrombin digestion to remove the hexahistidine tag, contaminant proteins were removed by loading the elute onto a second cobalt affinity column equilibrated in the dialyzing buffer and collecting the flow-through. The protein was further purified with anion exchange chromatography, using a linear gradient of 10 mM to 1 M NaCl concentration and size exclusion chromatography at 20 mM Tris pH 8.5 and 200 mM NaCl[22][23].
The ability of the purified 11β-HSD1 to bind with potential ligands was analyzed using MST. The protein was labeled with the Monolith NT™ Protein Labeling Kit RED (Cat#L001) according to the supplied labeling protocol. Labelled 11β-HSD1 was kept constant at 50 nM, while all samples tested were diluted in a 20 mM HEPES (pH 7.5) and 0.05 (v/v)% Tween-20. Compounds were diluted in 12 dilution steps covering the range of appropriate concentrations. After 10 min incubation at room temperature, samples were loaded into Monolith^TM standard-treated capillaries and the thermophoresis was measured at 22 °C after 30 min incubation on a Monolith NT.115 instrument (NanoTemper Technologies, München, Germany). Laser power was set to 40% using 30 seconds on-time and the LED power was set to 100%. The dissociation constrant Kd values were fitted by using the NTAnalysis software (NanoTemper Technologies, München, Germany).

[2] = target: T1, recombinant human 11β-HSD1; assay: 11β-HSD1 enzyme inhibition assay (cortisone to cortisol, HPLC-MS/MS); format: biochemical; conditions: cortisone 50 μM, NADPH 1 mM, 37 °C, 30 min, read-out: IC50 (inhibitory activities against 11β-HSD1)
Protocol: To explore the 11β-HSD1 inhibitory activities of compounds 1–8 in vitro, recombinant human 11β-HSD1 protein was incubated with various concentrations of compounds and the enzymatic activity (cortisone to cortisol) was tested using HPLC-MS/MS (Fig. 3).
as §1
The inhibitory effects of 1–8 on 11β-HSD1 were measured using recombinant human 11β-HSD1 protein through HPLC-MS/MS method. Briefly, 2.5 μL recombinant 11β-HSD1 protein (0.512 mg protein/ml) was added to 100 μL buffer (100 mM KCl, 20 mM NaCl, 20 mM Hepes, pH 7.5) containing NADPH (1 mM) and cortisone (50 μM) with or without various concentrations of compounds. The reactants were incubated at 37 °C for 30 min. After extraction with dichloromethane, evaporation and resolvation with 200 μL methanol, cortisone and cortisol were measured by HPLC-MS/MS and multi-reactions monitoring (MRM) technology. Detection was performed using a Shimadzu LC-20AD HPLC system equipped with an SHIMADZU VP-ODS 150 L × 4.6 mm column connected to a API 4000 LC/MS/MS system. Samples were analyzed after injection and equilibrated with 45% solution A (0.1% formic acid in water) and 55% solution B (Methanol) under isocratic elution with the flow rate of 0.8 mL/min. The HPLC eluent were tested by HPLC-MS/MS using collision energy 33 eV (cortisol) and 30 eV […] in positive ion mode. Analyst quantitation optimization wizard was used to optimize the collision energies and other electric lens settings for MRM detections. The inhibition rates were calculated using the concentration ratios of cortisone and cortisol in tubes with or without various compounds.

[3] = system: 3T3-L1 preadipocytes; assay: Lipid accumulation in differentiation-induced 3T3-L1 preadipocytes (Oil Red O staining); format: cell-based; conditions: 3T3-L1 preadipocytes induced to differentiate, 50 μM compound, 6 days
Protocol: It was reported that 11β-HSD1 is highly expressed in normal liver[18] and stimulates pre-adipocyte differentiation. As a result, many 11β-HSD1 inhibitors were investigated to prevent adipogenesis. To further examine the 11β-HSD1 inhibitory effects of compound 3, we examined the anti-adipogenic effect of compound 3 during the differentiation of 3T3-L1 cells.
(§2) 3T3-L1 preadipocytes were purchased from Shanghai Institute of Cell Biology, Chinese Academy of Sciences. Both of them were cultured in DMEM medium (Gibco, USA) containing 10% FBS, penicillin (100 U/mL), streptomycin […] in 5% CO2 at 37 °C. 3T3-L1 preadipocytes were induced to differentiate as previously described. In short, differentiation was induced by adding 0.5 mmol/L 3-isobutyl-1-methyxanthine (Sigma), 10 μg/mL insulin (Sigma), and […] dexamethasone (Sigma) to the medium. After 48 h incubation (d2), the medium was replaced with DMEM containing 10 μg/mL insulin and 50 μM compound 3. On d4, the medium was replaced with DMEM containing compound 3, and then changed back to the same medium every on d6.
Preadipocytes 3T3-L1 were induced to differentiate with or without compounds 3 for 6 days, and then washed twice with PBS, fixed in 3.7% formaldehyde for 1 h and stained with Oil Red O for another 1 h at room temperature. Cells were then washed several times with PBS, and photographed by a light microscope (Olympus, Japan).

[4] = system: 11β-HSD1 expression in 3T3-L1 cells; assay: 11β-HSD1 expression in 3T3-L1 cells (western blot); format: cell-based; conditions: differentiation-induced 3T3-L1 preadipocytes, β-Actin loading control
Protocol: Figure 5 Effects of compound 3 on lipid accumulation and 11β-HSD1 expression in 3T3-L1 cells. Preadipocytes were induced to differentiate in the presence or absence of compound 3, which was then stained with Oil Red O and photographed (40×). 11β-HSD1 expressions were determined by western blot. β-Actin was used as a loading control.
as §2
Cells were treated and then lysed in a radio immune-precipitation assay buffer. Protein concentrations were determined using a BCA protein assay kit (Byontime, Beijing, China) and equalized before loading. […]

T1 sequence (P28845 whole entry): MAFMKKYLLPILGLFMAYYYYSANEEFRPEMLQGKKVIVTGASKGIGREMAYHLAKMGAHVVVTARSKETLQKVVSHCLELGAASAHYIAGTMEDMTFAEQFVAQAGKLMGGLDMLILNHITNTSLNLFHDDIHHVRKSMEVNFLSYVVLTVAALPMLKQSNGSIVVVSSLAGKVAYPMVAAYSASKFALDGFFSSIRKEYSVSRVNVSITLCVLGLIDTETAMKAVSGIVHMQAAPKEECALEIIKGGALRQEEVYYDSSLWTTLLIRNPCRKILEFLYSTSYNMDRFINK

| SMILES | IC50 [2] [µM] | Kd [1] [µM] | Kd (dissociation constant with 11β-HSD1) [1] | lipid droplet accumulation [3] | 11β-HSD1 expression [4] |
| --- | --- | --- | --- | --- | --- |
| CN1C(=O)c2ccccc2NC(=O)C12OC2c1cccc(O)c1 (single isomer, unassigned; (+)) [Compound 5, (+)-cyclopenol] | 45.5 ± 7.82 | 421 ± 12.1 |  |  |  |
| CN1C(=O)c2ccccc2NC(=O)C12OC2c1ccccc1 (centres unmarked) [Compound 6, cyclopenin] |  | 513 ± 10.6 |  |  |  |
| CC(C)=CCC[C@]1(C)[C@@H](O)CC[C@@]2(C)[C@H]1CC[C@H]1Cc3c([nH]c4ccccc34)[C@@]12C [Compound 7, emindole SB] | > 200 |  | either no binding or no statistically significant binding was detected and n.b. |  |  |
| CN1C(=O)c2ccccc2NC(=O)/C1=C/c1ccccc1 [Compound 4, 3-benzylidene-3,4-dihydro-4-methyl-lH-l,4-benzodiazepine-2,5-dione] | > 200 |  | either no binding or no statistically significant binding was detected and n.b. |  |  |
| COc1cc(Cc2c(O)c(C)cc(C(C)=O)c2O)c(OC)cc1O [Compound 2, Penicophenone B] | > 200 |  | either no binding or no statistically significant binding was detected and n.b. |  |  |

More lines, main results first:

| IC50 [2] [µM] | Kd [1] [µM] | SMILES | Kd (dissociation constant with 11β-HSD1) [1] | lipid droplet accumulation [3] | 11β-HSD1 expression [4] |
| --- | --- | --- | --- | --- | --- |
| > 200 |  | CC(=O)c1cc(C)c(O)c(C[C@]23Cc4c(O)c(C(C)=O)cc(C)c4O[C@@]2(O)[C@@H](C)OC3=O)c1O [Compound 8, penilactones A] | either no binding or no statistically significant binding was detected and n.b. |  |  |
| 9.07 ± 0.61 | 82.1 ± 5.01 | CN1C(=O)c2ccccc2NC(=O)[C@@H](Cc2ccccc2)N(C)C(=O)c2ccccc2NC(=O)[C@H]1Cc1ccccc1 [Compound 3, Penicopeptide A] |  | decreased the lipid droplet accumulation | inhibition of 11β-HSD1 expression |
| > 200 |  | CC(=O)c1cc(C)c2c(c1O)C[C@H](C)[C@@]1(C[C@@H](O)C[C@@H](C)O1)O2 [Compound 1, Penicophenone A] | either no binding or no statistically significant binding was detected; also recorded: n.b.b |  |  |
